# Assay results from article PMC6943527, “Are the Hydantoin-1,3,5-triazine 5-HT6R Ligands a Hope to a Find New Procognitive and Anti-Obesity Drug? Considerations Based on Primary In Vivo Assays and ADME-Tox Profile In Vitro” (Molecules, 2019).
# “And” between values parts separate entries of the source, which are not always exact repeats. Equal entries are not always repeated.
# Legend:
# [1] = Plasma protein binding, TRANSIL XL PPB assay; details: human, immobilized HSA and AGP at 24:1 (TRANSIL XL PPB assay)
# Protocol: (§3) The immobilized HSA and AGP used in this study was included in the commercial test TRANSIL^XL PPB (plasma protein binding) assay.
# (§4) The study was performed with use of the commercial TRANSIL^XL PPB Assay (Sovicell, Leipzig, Germany). The test was performed according to recommendations from the protocol provided by the manufacturer. […] Next, the plate was centrifugated at 750 g for 10 min. The supernatants were collected and analyzed by LC/MS.
# (§5) The total fraction bound was estimated by:(3) fb=1−1/1+[HSA]/KDHSA+[AGP]/KDAGP
# [2] = test system: human serum albumin (HSA) and α1-acid glycoprotein (AGP); experiment: Plasma protein binding, TRANSIL XL PPB assay
# Protocol: as §3, §4, §5
# [3] = design: method as in PMID 30282913; details: cited from earlier work
# [4] = Parallel artificial membrane permeability assay (PAMPA)
# [5] = Metabolic stability and metabolic pathways in human liver microsomes
# Protocol: The pharmacokinetic parameters of compounds were estimated by using human liver microsomes (HLMs) (Sigma-Aldrich, St. Louis, MO, USA). The t1/2 values and intrinsic clearances (CLint) were calculated with IS by using the protocols and formulas proposed by Obach [38]. […] VL was used as the reference unstable drug.
# Caco-2 cells = experiment: Caco-2 permeability assay; type: in vitro ADME
# Protocol: (§1) The Caco-2 (ATCC® HTB-37^TM) cell line was purchased from American Type Culture Collection (ATCC) (Manassas, VG, USA). The cells were cultivated in Dulbecco’s Modified Eagle’s Medium (DMEM) supplemented with 10% fetal bovine serum (FBS) in a humidified atmosphere of 5% CO2. The medium was changed every two days, and the cells were subcultured at 70%–80% confluence. […] The inserts were pretreated first with 50 µL of the medium for two minutes. Next, the 200 µL of cells were seeded at […] concentration per insert in apical compartment, whereas 600 µL was added to the basolateral one. […] TEER (transepithelial electrical resistance) measurements was started from 18 days after seeding by Millicell ERS-2 Volt-Ohm Meter (Merck Millipore, Burlington, MA, USA). […] Then, the monolayer was rinsed with HBSS (Hank’s balanced salt solution) and KMP-10, and the highly permeable reference CFN was added at a 10 µM concentration with the HBSS into the apical chambers. The 600 µL of HBSS was added to the basolateral compartments. Lucifer yellow (5 µM) was also added to the apical chambers as the membrane integrity marker. The plate was placed in the orbital shaker (60 rpm) for 2 h at 37 °C. The compounds’ concentrations in apical and basolateral wells were analyzed using the UPLC-MS method with IS. To confirm the membrane integrity, the fluorescence of lucifer yellow was measured in basolateral compartment by EnSpire multiplate reader (Perkin Elmer, Waltham, MA, USA).
# (§2) The apparent permeability Papp was calculated from two experiments according to the following formula [34]:Papp= dc/dt × V/(A × C0)(1) where: • dc/dt—the change in concentration in the receiving compartment over time • V—volume of the solution in the receiving compartment (mL) • A—surface area of the membrane (cm^2) • C0—the initial concentration in the donor compartment (µM).
# [6] = Caco-2 permeability assay; type: in vitro ADME; details: human, Caco-2; 10 µM in apical chamber, 2 h, 37 °C, two experiments; read-out: Caco-2 Papp ± SD
# Protocol: as §1, §2
# [7] = Novel object recognition (NOR) test; type: in vivo, male Wistar rats; details: rats
# Protocol: The experiments were performed on male Wistar rats (200–220 g) obtained from an accredited animal facility at the Jagiellonian University Medical College, Poland. The animals were housed in group of four in controlled environment (ambient temperature 21 ± 2 °C; relative humidity 50%–60%; 12-h light/dark cycles (lights on at 8:00). Standard laboratory food (LSM-B) and filtered water were freely available. Animals were randomly assigned to treatment groups. All the experiments were performed by two observers unaware of the studied treatment between 9:00 and 14:00 on separate groups of animals. All animals were used only once. Procedures involving animals and their care were conducted in accordance with current European Community and Polish legislation on animal experimentation. Additionally, all efforts were made to minimize animal suffering and to use only the number of animals necessary to produce reliable scientific data. […]
# The animals explored the objects by looking, licking, sniffing or touching the object but not when leaning against, standing or sitting on the object. […] The exploration time of the objects was measured by blind experimenter. Based on exploration time (E) of the two objects during T2, the discrimination index (DI) was calculated according to the formula: DI = (EB − EA)/(EA + EB). […]
# [8] = test system: human embryonic kidney (HEK)-293 cells; design: method as in PMID 30282913; details: highest concentration 100 µM; cited from earlier work
# 5-HT2A = molecular target: 5-HT2A; design: method as in PMID 30282913; details: radioligand binding, average of at least two independent experiments; read-out: Ki 5-HT2A [3H]-Ketanserin; cited from earlier work
structure (smiles),measurement,setting,value
"CN1CCN(c2nc(N)nc(CN3C(=O)NC(C)(c4ccc5ccccc5c4)C3=O)n2)CC1 (stereo not shown) [KMP-10, 3-((4-amino-6-(4-methylpiperazin-1-yl)-1,3,5-triazin-2-yl)methyl)-5-methyl-5-(naphthalen-2-yl)imidazolidine-2,4-dione]","fraction unbound at 12 min, 5 µM",[1],0.155
same,PPB KD,"[2]; immobilized HSA and AGP 24:1, 5 µM compound",112 µM
same,"PPB KD, fold higher than warfarin",[2]; vs warfarin,~ 10 fold
same,Antidepressive-like properties in the Porsolt model,[3],antidepressive-like properties
same,"Papp at 5 h, 200 µM","[4]; PAMPA, pH 7.4",37.6 ± 7.6 nm/s
same,"PAMPA permeability, fold weaker than caffeine",[4]; vs caffeine,~ 4 fold and 4 fold
same,"Metabolic Pathway, metabolite M1","[5]; HLMs, 120 min incubation",demethylation
same,"Metabolic Pathway, metabolite M2","[5]; HLMs, 120 min incubation",hydroxylation
same,"Metabolic Pathway, metabolite M3","[5]; HLMs, 120 min incubation",demethylation and hydroxylation
same,"Metabolic Pathway, metabolite M4","[5]; HLMs, 120 min incubation",hydroxylation and dehydrogenation
same,Intrinsic Clearance CLint,"[5]; HLMs, reactions terminated at 5, 15, 30 and 45 min",0.224 L/h/kg
same,"t1/2, fold longer than verapamil","[5]; HLMs, vs unstable reference verapamil",~ 8 fold
same,CLint scaled,"[5]; human, liver microsomes",0.224 L/h/kg
same,half-life,"[5]; human, liver microsomes, Half-Life t1/2, HLMs, reactions terminated at 5, 15, 30 and 45 min",3.98 h
same,half-life,"[5]; human, liver microsomes, t1/2 in vitro, HLMs, as restated in comparison to SUVN-502",> 3 h
same,Caco-2 permeability classification,"Caco-2 cells; bands: Papp <2 low, 2-20 moderate, >20 × 10^−6 cm/s high",moderate permeability
same,"Caco-2 absorption, fold weaker than caffeine",Caco-2 cells; vs caffeine,3 fold
same,"Papp at 2 h, 10 µM",[6],62.7 ± 3 nm/s
same,Memory deficits induced by scopolamine in NOR test,[7]; full dose-range 0.3–3 mg/kg i.p.,significantly and dose-dependently reversed
same,"Memory impairment induced by MK-801 in NOR test, discrimination index",[7]; some activity at 1 mg/kg i.p.,did not reach a statistically significant level
same,HEK-293 cells viability,[8],no effect
same,Ki,5-HT2A,17.2 µM
